Experimental data taken from patent US20170246137A1, “SULFESTROL FOR TREATING CANCER” (CHAMAELEO PHARMA BVBA, priority 2012, published 2017).

How the values were obtained:
[1] = In vitro metabolism in human liver microsomes (STS and CYP); type: in vitro ADME; set-up: Clint: unit not given here; details: for Clint / Contribution to metabolism / Half-life: 5 μM
Protocol: In vitro metabolism pathways of DES, Mono-Sulfestrol and Di-Sulfestrol in human liver microsomes were investigated.
Special emphasis was put on desulfatation by steroid sulfatase (STS) and oxidation by cytochrome P (CYP) metabolism. Liver microsomes (Celsis in vitro Technologies) were used at a concentration of 0.5 mg/ml in a volume of 600 μl phosphate buffer pH 7.4. Estrone-3-sulfate was used as positive control.
5 μM of each compound (test and control compound) was added to the liver microsomes and the mixture was incubated at 37° C. for 5, 10, 20, 30, 50, 90 and 120 minutes. After incubation, aliquots of 45 μl were taken which were subsequently quenched with 150 μl ice cold methanol. Aliquots were incubated ≧1 h at −20° C. for protein precipitation. After precipitation, samples were centrifuged and remaining supernatant was used for analysis with LC-MS/MS. Half life of the compounds, speed of metabolism or intrinsic clearance (Clint), and contribution to metabolism of CYP and STS metabolism were calculated based on the data obtained at each time point.

[2] = tested on: platelet-rich plasma (PRP); test: Platelet-aggregation-inducing effects in platelet-rich plasma, absorbance 630 nm; type: cell-based; details: 7 minutes, human PRP
Protocol: Blood necessary to generate PRP was obtained from 4 healthy human volunteers. 100 ml of fresh venous blood from each donor was isolated directly into tubes containing 1/10th volume of the anti-coagulant Tri-Sodium Citrate (3.2% w/v). The blood and anti-coagulant were immediately mixed and the final concentration of Tri-Sodium Citrate was 0.0106 M.
PRP was prepared by centrifugation of anti-coagulated blood at 180 g for 10 minutes at room temperature. The cloudy yellow supernatant containing the platelets was removed and placed into a clean polypropylene tube. Platelet-poor plasma (PPP) was prepared by centrifuging the remaining sample at 1,200 g for 20 minutes at room temperature. The PRP was adjusted to a suitable platelet count and absorbance at 630 nm by addition of PPP.
All three compounds were dissolved in 100% DMSO to give a stock concentration of 60 mM. […] […] 100 nM gamma thrombin (Cambridge bioscience) was used as control for platelet aggregation. 90 μl aliquots of PRP were added to 96 wells plates. A baseline absorbance reading was taken at 630 nm. 5 μl of the compounds and gamma thrombin control was added to the appropriate PRP.
The plates were incubated at room temperature for 7 minutes on a plate shaker with continuous shaking. A second A630 nm reading was made after the 7 minutes incubation to measure any platelet aggregation induced by the compounds.

[3] = Metabolites in plasma after oral and intravenous administration, LC-MS/MS
Protocol: Metabolites were identified after oral and intravenous administration of the compounds.
Each group consisted of three rats, giving a total of 12 animals. Compounds were dosed at 10 mg/kg for both oral and intravenous administration. A 0.9% saline solution was used as vehicle for oral and intravenous administration.
Prior to intravenous administration, the solution was filtered through a 0.22 μM filter. Oral dosing was performed using a oral gavage. Tail vein injection was used for intravenous administration.
At 0.5, 1, 2, 4, 6 and 8 hrs post administration, 0.25 ml blood was drawn from the animals and immediately transferred to prechilled microcentrifuge tubes containing 4 μl of K2-EDTA to prevent coagulation. Plasma was obtained by centrifugation of the plasma and stored at −70° C. until analysis. Plasma drawn from each individual rat was pooled according to the following schedule:
The pooled samples were analyzed using LC-MS/MS and the relative percentage of each metabolite in the pooled sample was measured on the basis of the mass spectrometric peak areas of the parent and its metabolites in the plasma.

MDA-MB-231 Dlux = test: Orthotopic spontaneous metastasis breast model, whole body bioluminescence; type: in vivo, female MF-1 nude mice; details: for total flux, whole body bioluminescence: mono-Sulfestrol 60 mg/kg, di-Sulfestrol 80 mg/kg orally once a day
Protocol: Female MF-1 nude mice (HsdOla:MF1-Foxn1nu, Harlan, UK) were divided into 3 groups of each 8 mice (n=8):
The mice were 5-6 weeks old at the start of the study and were maintained in sterile isolators within a barriered unit illuminated by fluorescent lights set to give a 12 hour light-dark cycle (on 07.00, off 19.00). The room was air-conditioned to maintain an air temperature range of 23±2° C. Sterile irradiated 2019 rodent diet (Harlan Teklad UK, product code Q219DJ1R2) and autoclaved water were offered ad libitum.
The MDA-MB-231 Dlux cells were maintained in vitro in RPMI containing 2 mM L-Glut and (Life Technologies, UK) and 10% (v/v) heat-inactivated foetal bovine serum (Sigma, Poole, UK) at 37° C. in 5% CO2 and humidified conditions. Cells were treated with Zeocin once a week at 0.4 mg/mL.
On the day of initiation cells were harvested from semi-confluent monolayers with 0.05% Trypsin-EDTA, washed twice in the culture medium and counted. Cells with viability of >90% were re-suspended, for in vivo administration, in 1:1 PBS:Matrigel at 2×10^6 cells/0.1 mL. Prior to injection, the cell suspension was homogenized and 0.1 mL of cell suspension was drawn into a 1 mL syringe. The cell suspension was then injected orthotopically into the lower left-side 2nd mammary fat pad of each mouse under anaesthesia (Medetomidine/Ketamine).
On day 7 after initiation and every six days thereafter, the mice were injected (s.c.) with 150 mg/kg D-Luciferin. 10 minutes following administration of D-Luciferin mice were anaesthetised and 15 minutes after administration they were placed into an imaging chamber (Spectrum CT) and imaged for luminescence (ventral view; whole body and shielding of the primary tumor). Images were captured and processed by Living Image 4.3.1 software (Caliper LS, US.).
On day 7 after initiation mice were assigned to groups such that there was a uniform mean bioluminescent signal between the groups.

LNCaP = test: In vitro direct cytotoxicity, Cell titer Blue viability, 72 hrs; type: cell-based
Protocol: (§1) Cells were harvested, washed, re-suspended into growth medium and counted.
(§2) Stocks of all compounds were then serially diluted. […] Positive control was Taxotere. Taxotere was diluted in 100% DSMO to give a stock concentration of 1 mM. Stock was serially diluted. Final concentrations to which cells were exposed were 1000, 333.3, 111.1, 37.0, 12.3, 4.1, 1.4, 0.5, and 0.2 nM.

DU-145 = test: as above; type: cell-based
Protocol: as §1, §2

[4] = + NADPH + 667-Coumate (STS inactive, CYP active)
[5] = nothing added (STS active, CYP inactive)

4-(4-(4-oxidophenyl)hex-3-en-3-yl)phenyl sulfate [Mono-Sulfestrol]
metabolism pathway in human liver microsomes (in words) [1]: metabolized by both STS and CYP enzymes
Clint [1, 4]: 51
Contribution to metabolism [1, 4]: 44%
Half-life [1, 4]: 27 min
Clint [1, 5]: 22
Contribution to metabolism [1, 5]: 19%
Half-life [1, 5]: 63 min
Absorbance (630 nm) ([2]; 2.3 μM, high absorbance = low aggregation): 0.274 ± 0.034
Absorbance (630 nm) ([2]; 4.7 μM): 0.277 ± 0.029
Absorbance (630 nm) ([2]; 9.4 μM): 0.272 ± 0.029
Absorbance (630 nm) ([2]; 18.75 μM): 0.275 ± 0.029
Absorbance (630 nm) ([2]; 37.5 μM): 0.278 ± 0.030
Absorbance (630 nm) ([2]; 75 μM): 0.281 ± 0.031
Absorbance (630 nm) ([2]; 150 μM): 0.283 ± 0.036
metabolic fate in rat plasma (in words) ([3]; 10 mg/kg oral and intravenous): undergoes minimal metabolic processing
Relative Abundance ([3]; pooled rat plasma after Mono-Sulfestrol 10 mg/kg IV): IV: 86.99%
Relative Abundance ([3]; pooled rat plasma after Mono-Sulfestrol 10 mg/kg PO): PO: 91.91%
total flux, whole body bioluminescence (MDA-MB-231 Dlux; Day 7 (before start of treatment)): 1.72 10^9 photons/second
total flux, whole body bioluminescence (MDA-MB-231 Dlux; Day 13): 5.89 10^9 photons/second
total flux, whole body bioluminescence (MDA-MB-231 Dlux; Day 19): 9.22 10^9 photons/second
effect on tumor progression (in words) (MDA-MB-231 Dlux; oral, MDA-MB-231 Dlux in mice): tumor progression inhibiting effect
cytotoxicity in vitro (in words) (LNCaP): inactive
IC50 value (LNCaP; hormone-dependent prostate cancer cell line, 72 hrs): Not active
cytotoxicity in vitro (in words) (DU-145; DU-145): inactive
IC50 value (DU-145; DU-145, hormone-independent prostate cancer cell line, 72 hrs): Not active
